Values joined by “and” are separate entries in the source; they are usually repeats but may differ in a detail not shown here. Equal entries are not always repeated.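 How tested: cells in 96-well plates exposed to compound for 48 hours at five concentrations. Abbreviation: GI50, concentration required for 50% inhibition of growth. TGI denotes the concentration required for complete inhibition of growth.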
How the values were obtained:
Experiment in all cases: NCI tumour cell line growth inhibition, 48 h
COLO 205 colon = tested on: COLO 205 colon
IGROV1 ovarian = tested on: IGROV1 ovarian
MALME-3M melanoma = tested on: MALME-3M melanoma
NCI-H226 lung = tested on: NCI-H226 lung
NCI-H460 lung = tested on: NCI-H460 lung
RPMI-8226 leukemia = tested on: RPMI-8226 leukemia
RXF 393 renal = tested on: RXF 393 renal
SNB-75 CNS = tested on: SNB-75 CNS
MCF7 breast = tested on: MCF7 breast
MDA-MB-231 breast = tested on: MDA-MB-231 breast

Compound	TGI (COLO 205 colon)	TGI (IGROV1 ovarian)	TGI (MALME-3M melanoma)	TGI (NCI-H226 lung)	TGI (NCI-H460 lung)	TGI (RPMI-8226 leukemia)	TGI (RXF 393 renal)	TGI (SNB-75 CNS)	TGI (MCF7 breast)	TGI (MDA-MB-231 breast)	GI50 (MALME-3M melanoma)	GI50 (MCF7 breast)	GI50 (MDA-MB-231 breast)	GI50 (NCI-H226 lung)	GI50 (NCI-H460 lung)	GI50 (IGROV1 ovarian)	GI50 (RPMI-8226 leukemia)	GI50 (SNB-75 CNS)	GI50 (RXF 393 renal)
CN(C)c1nc(Oc2nc(N(C)C)nc(N(C)C)n2)nc(N(C)C)n1	> 100 µM	> 100 µM	> 100 µM	> 100 µM	> 100 µM	> 100 µM	> 100 µM	> 100 µM											
CCCCCCCC(=O)OCC(COC(=O)C(C)(C)C)OC(=O)Cc1ccccc1 (stereo unspecified)	> 100 µM	> 100 µM	> 100 µM	> 100 µM	> 100 µM	> 100 µM													
CN(C)CCn1c(=O)c2ccc(NCCCN(C)CCCNc3ccc4c(=O)n(CCN(C)C)c(=O)n5c6ccc(O)cc6c(=O)c3c45)c3c(=O)c4cc(O)ccc4n(c1=O)c23	0.187 µM	0.392 µM	0.598 µM	0.0488 µM	0.234 µM		0.215 µM	0.0627 µM	0.71 µM	0.177 µM									
CCCCCCCCCCCCCCCCCCOc1ccccc1CC(=O)NCC[N+]1(C)CCOCC1			> 100 µM	89 µM	17.4 µM				9.34 µM	8.34 µM	4.48 µM	2.71 µM	2.76 µM	4.9 µM	3.31 µM				
c1ccc2c(c1)SCCCS2	> 100 µM	> 100 µM			> 100 µM			> 100 µM	> 100 µM	> 100 µM									
O=[N+]([O-])c1ccc(C[P+]2(c3ccccc3)CCCCC2)cc1	> 100 µM	> 100 µM	> 100 µM	> 100 µM	> 100 µM	> 100 µM	> 100 µM	> 100 µM											
Cc1nc2ccc(Cl)cc2c(-n2ccnc2)c1CCn1ccnc1	41.5 µM	> 100 µM	97 µM	53.2 µM	> 100 µM		53.1 µM	72.8 µM	> 100 µM	48.9 µM									
C[C@]12CCC3[C@@H](CCC45OC4C(=O)CC[C@]35C)C1Cc1cnn(-c3ccc(F)cc3)c1N2 (stereo partly specified)	> 100 µM		> 100 µM	> 100 µM	> 100 µM	54.7 µM	87.2 µM	> 100 µM											
CCc1c(O)cc(=O)oc1-c1ccc(OC)c(OC)c1	> 100 µM	> 100 µM			> 100 µM		> 100 µM	> 100 µM	> 100 µM	> 100 µM									
COc1cc(C)c(CC/C(C)=C/Cc2cc(O)ccc2O)c(C)c1C	> 25 µM	> 25 µM	> 25 µM	> 25 µM	> 25 µM	> 25 µM	> 25 µM	> 25 µM											
O=c1oc2ccc3ccccc3c2cc1-c1cn2ccsc2n1	33.3 µM	23.2 µM	41.1 µM		> 100 µM	46.2 µM	37.4 µM	> 100 µM	19 µM	57.4 µM									
Cc1c2ccnc(C(N)=O)c2c(C)c2c1[nH]c1ccccc12	50 µM and > 100 µM	50 µM and 27.4 µM	19.3 µM	19.8 µM and 15.7 µM	16.2 µM and 13.7 µM	34.5 µM and 16.4 µM	16.6 µM	24.6 µM and 39.9 µM	32 µM		5.02 µM			3.28 µM	2.62 µM	7.49 µM	3.58 µM	13.8 µM	
Cc1ccccc1-c1nc2c(N)nc(N)nc2nc1N	> 100 µM	> 100 µM			> 100 µM	> 100 µM		> 100 µM	> 100 µM	> 100 µM									
CSCC[C@@H](NC(=O)[C@H](CC(C)C)NC(=O)C(Cc1cnc[nH]1)NC(=O)CNC(=O)[C@@H](NC(=O)[C@H](C)NC(=O)[C@H](Cc1c[nH]c2ccccc12)NC(=O)[C@H](CCC(N)=O)NC(=O)[C@@H](N)CC(N)=O)C(C)C)C(N)=O (stereo partly specified)	> 100 µM	> 100 µM	> 100 µM	> 100 µM	> 100 µM	> 100 µM	> 100 µM	> 100 µM	> 100 µM										
c1ccc(-c2c(-c3ccccc3)[n+](Cc3ccc4ccccc4c3)c(-c3ccc(-c4nc5ccccc5s4)cc3)n2Cc2ccc3ccccc3c2)cc1		0.408 µM	0.204 µM		1.11 µM	0.426 µM		0.895 µM	0.337 µM		0.0536 µM	0.0587 µM			0.231 µM	0.121 µM	0.0625 µM	0.201 µM	
CC1CC(N2CCOCC2)=Nc2ccccc2N1C (stereo unspecified)	> 100 µM	> 100 µM	> 100 µM	> 100 µM	> 100 µM	> 100 µM	> 100 µM	89.7 µM		> 100 µM									
COC(=O)CC(=O)OSc1ccccc1	38.2 µM	20.2 µM	> 100 µM	64 µM	> 100 µM	> 100 µM	25.3 µM												
CC(C)C(Br)CCC1=CCC(Br)(Br)C1 (stereo unspecified)	29.6 µM	10.8 µM	27.9 µM	26.9 µM	31.7 µM		29 µM	23.3 µM	23.9 µM	20.7 µM									

Compound	TGI (COLO 205 colon)	TGI (IGROV1 ovarian)	TGI (MALME-3M melanoma)	TGI (NCI-H226 lung)	TGI (NCI-H460 lung)	TGI (RPMI-8226 leukemia)	TGI (RXF 393 renal)	TGI (SNB-75 CNS)	TGI (MCF7 breast)	TGI (MDA-MB-231 breast)	GI50 (MALME-3M melanoma)	GI50 (MCF7 breast)	GI50 (MDA-MB-231 breast)	GI50 (NCI-H226 lung)	GI50 (NCI-H460 lung)	GI50 (IGROV1 ovarian)	GI50 (RPMI-8226 leukemia)	GI50 (SNB-75 CNS)	GI50 (RXF 393 renal)
Cc1c(N2CCOCC2)nc2ccc(Cl)cc2c1-c1ccccc1	> 100 µM	> 100 µM	> 100 µM		> 100 µM	> 100 µM	> 100 µM	> 100 µM											
Cc1cc([N+](=O)[O-])c(C)c2c1[nH]c1ccc(Cl)cc12	> 100 µM		> 100 µM	> 100 µM	> 100 µM	> 100 µM		> 100 µM											
COc1ccc(C)cc1N1C(=O)C2ON(Cc3ccc(CC(N)=O)cc3)C(c3c4ccccc4c(Cl)c4ccccc34)C2C1=O (stereo unspecified)		> 100 µM	> 100 µM		36.6 µM		33.7 µM	38.9 µM	> 100 µM	49 µM									
COc1ccc(C2Oc3ccc(Cl)cc3C=C2[N+](=O)[O-])cc1 (stereo unspecified)	> 100 µM	> 100 µM	> 100 µM		> 100 µM	> 100 µM	> 100 µM		> 100 µM	> 100 µM									
COC(=O)c1ccccc1C1CN=NC12Cc1c(ccc(C)c1C)C2=O (stereo unspecified)	> 100 µM	> 100 µM	> 100 µM	> 100 µM	> 100 µM		> 100 µM	89.1 µM	> 100 µM	> 100 µM									
NCCN1CCCCCc2ccccc21	> 10 µM	> 10 µM	> 10 µM	> 10 µM	> 10 µM	> 10 µM	> 10 µM	> 10 µM	> 10 µM										
COc1cc2nc(-c3ccc(Cl)cc3)cc(OCCCN3CCOCC3)c2cc1OC		> 100 µM		4.81 µM	> 100 µM		3.79 µM		> 100 µM			2.49 µM		0.997 µM	0.958 µM	0.99 µM			1.12 µM
CC(C)Oc1cccc(N2C(n3ccnc3)=Nc3ccncc3S2(=O)=O)c1	24.7 µM	29.1 µM	26.6 µM	42.5 µM	37.4 µM	12.3 µM	28.9 µM	33.3 µM	24.1 µM										
CO/N=C1\CC(NC(=O)C(F)(F)F)c2ccsc21 (stereo unspecified)	> 100 µM	> 100 µM	> 100 µM	> 100 µM	> 100 µM		> 100 µM	> 100 µM	> 100 µM	> 100 µM									
COC(=O)/C=C(\C)CC/C=C(\C)CCC1OC1(C)C (stereo unspecified)	30 µM	26.9 µM	29.1 µM	24.8 µM	24.2 µM		23.8 µM	38.8 µM	21.8 µM	23.4 µM									
COc1ccc(CNc2cnc3ccc(N)cc3n2)cc1	34.6 µM		> 100 µM	> 100 µM	> 100 µM	> 100 µM		> 100 µM											
COc1cc2ccc3c4cc(OC)c(OC)cc4c[n+](C)c3c2cc1O	> 100 µM	> 100 µM	> 100 µM	> 100 µM	> 86.7 µM	> 100 µM	> 100 µM	> 100 µM											
CN(C)CCNC(=O)c1cccc2c1Nc1ccccc1S2	25.8 µM	24.1 µM	29.2 µM	16.8 µM	25.7 µM	29.9 µM	23.6 µM	21.3 µM	27 µM										
CC(=O)NNc1nc(C)c(C(=O)NNC(=O)C(=O)Nc2ccc([N+](=O)[O-])cc2[N+](=O)[O-])s1	> 100 µM	> 100 µM		> 100 µM	> 100 µM	> 100 µM	> 100 µM	> 100 µM											
CCOC(=O)C1C(c2ccc(Cl)cc2Cl)NC(c2ccc(C)cc2)C(C(=O)OC)S1(=O)=O (stereo unspecified)	> 100 µM	> 100 µM	> 100 µM	> 100 µM	> 100 µM	> 100 µM	> 100 µM	> 100 µM											
CCOC(=O)/C=C/c1nc(C#N)c(N)o1		> 100 µM				> 100 µM	> 100 µM	> 100 µM	> 100 µM	> 100 µM									
O=C1C=CC2(O[C@H](c3ccccc3)[C@@H](c3ccccc3)O2)[C@H](Sc2ccccc2O)C1	1.62 µM	0.593 µM	0.907 µM	5.43 µM	8.95 µM		0.524 µM	8.16 µM	2.44 µM	2.22 µM									
